The values below come from patent US20250320202A1, “PRMT5 INHIBITOR, PREPARATION METHOD THEREFOR, AND PHARMACEUTICAL USE THEREOF” (Abbisko Therapeutics Co., Ltd., priority 2022, published 2025).

Each structure is given as a SMILES string. A value given as a limit tells only on which side of the number the result lay.

The subject of assay [1] is HCT116 MTAP knockout cells. Nature of the assay: Human colon cancer HCT116 cell proliferation inhibition test (CellTiter-Glo, 6 days), MTAP knockout cells. Format: cell-based. The note with it: HCT-116, 144 h. Here is the method: (§1) 1. HCT116 MTAP knockout and MTAP wild-type cells were plated in 96-well flat bottom plates, and cultured overnight with McCoy's 5A medium containing 10% fetal bovine serum+1% penicillin-streptomycin at 37° C. and 5% CO2.
(§2) 2. On the next day, the compound was dissolved with DMSO, diluted with DMSO and medium successively and transferred to the cell plate. The final concentration of the compound was 10 μM, the compound was diluted 4 times, with 9 concentration gradients, and DMSO control was added.
(§3) 3. Cells that have not been treated with the compound were removed. CellTiter-Glo Luminescent Cell Viability Assay (Promega) was used to detect cell viability, the operation was performed with reference to the package insert of the kit, and then the cell plate was placed on EnVision Multilabel Reader to detect the cold light signal.
(§4) 4. Meanwhile, the cell plate treated with the compound was cultured at 37° C. and 5% CO2 for 6 consecutive days.
(§5) 5. Then, CellTiter-Glo was also used to detect cell viability.
(§6) 6. Finally, the four-parameter dose-response curve module of GraphPad Prism v 9.2.0 software was used to plot the dose-response curve and calculate the IC50 for proliferation inhibition (unit: nM).
On the technique in general: ATP-based viability assays read luminescence as a measure of living cells.

Assay [2] has as its system HCT116 MTAP wild-type cells. Nature of the assay: Human colon cancer HCT116 cell proliferation inhibition test (CellTiter-Glo, 6 days), MTAP wild-type cells. Format: cell-based. The conditions noted are these: HCT-116, 144 h. Here is the method: as §1, §2, §3, §4, §5, §6

Usually IC50 stands for the concentration needed to halve the response being measured. Read a high IC50 as lower potency. Take `Cn1cc(N(C(=O)c2cc3c(cc2F)nc(N)c2cnn(C)c23)[C@@H]2COc3nc(C(F)(F)F)ccc32)cn1` [Example 2, (S)-4-amino-7-fluoro-1-methyl-N-(1-methyl-1H-pyrazol-4-yl)-N-(6-(trifluoromethyl)-2,3-dihydrofuro[2,3-b]pyridin-3-yl)-1H-pyrazolo[4,3-c]quinolin-8-carboxamide]: the values for the IC50 in assay [1] and in assay [2] were 1 nM and 30 nM, respectively. The corresponding values for `Cn1cc(N(C(=O)c2cc3c(cc2F)nc(N)c2cnn(C)c23)C2COc3cc(C(F)(F)F)ccc32)cn1` (centres unmarked) [Example 21, 4-amino-7-fluoro-1-methyl-N-(1-methyl-1H-pyrazol-4-yl)-N-(6-(trifluoromethyl)-2,3-dihydrobenzofuran-3-yl)-1H-pyrazolo[4,3-c]quinolin-8-carboxamide] are 0.8 nM and 79 nM. The like results for `Nc1nc2ccc(C(=O)N(CC3CC3)C3CCc4cc(C(F)(F)F)ccc43)cc2c2cnccc12` (centres unmarked) [Example 108, 5-amino-N-(cyclopropylmethyl)-N-(5-(trifluoromethyl)-2,3-dihydro-1H-inden-1-yl)benzo[c][2,6]naphthyridin-9-carboxamide] were, in that order, 36 nM and 1420 nM. With `Nc1nc2ccc(C(=O)N(CC3CC3)C3COc4cc(C(F)(F)F)ccc43)cc2c2cnccc12` (centres unmarked) [Example 109, 5-amino-N-(cyclopropylmethyl)-N-(6-(trifluoromethyl)-2,3-dihydrobenzofuran-3-yl)benzo[c][2,6]naphthyridin-9-carboxamide], the values for the IC50 in assay [1] and in assay [2] were 15 nM and 824 nM, respectively. The like results for `Cn1cc(N(C(=O)c2ccc3nc(N)c4ccncc4c3c2)C2CCc3cc(C(F)(F)F)ccc32)cn1` (centres unmarked) [Example 132, 5-amino-N-(1-methyl-1H-pyrazol-4-yl)-N-(5-(trifluoromethyl)-2,3-dihydro-1H-inden-1-yl)benzo[c][2,6]naphthyridin-9-carboxamide] were, in that order, 44 nM and 1950 nM.

As for `Cn1cc(N(C(=O)c2ccc3nc(N)c4ccncc4c3c2)C2COc3cc(C(F)(F)F)ccc32)cn1` (centres unmarked) [Example 133, 5-amino-N-(1-methyl-1H-pyrazol-4-yl)-N-(6-(trifluoromethyl)-2,3-dihydrobenzofuran-3-yl)benzo[c][2,6]naphthyridin-9-carboxamide], the IC50 in assay [1] was 8 nM; in assay [2], 708 nM. The corresponding values for `Cn1cc(N(C(=O)c2cc3c4c(c(N)nc3cc2F)COC4)C2CCc3nc(C(F)(F)F)ccc32)cn1` (centres unmarked) [Example 160, 4-amino-7-fluoro-N-(1-methyl-1H-pyrazol-4-yl)-N-(2-(trifluoromethyl)-6,7-dihydro-5H-cyclopenta[b]pyridin-5-yl)-1,3-dihydrofuro[3,4-c]quinolin-8-carboxamide] are 17 nM and 335 nM. The like results for `Cn1cc(N(C(=O)c2ccc3nc(N)c4c(cnn4C)c3c2)C2COc3cc(C(F)(F)F)ccc32)cn1` (centres unmarked) [Example 165, 4-amino-3-methyl-N-(1-methyl-1H-pyrazol-4-yl)-N-(6-(trifluoromethyl)-2,3-dihydrobenzofuran-3-yl)-3H-pyrazolo[3,4-c]quinolin-8-carboxamide] were, in that order, 35 nM and 2510 nM. The like results for `Cn1ccc(N(C(=O)c2cc3c(cc2F)nc(N)c2cnn(C)c23)C2CCc3cc(C(F)(F)F)ccc32)n1` (centres unmarked) [Example 168, 4-amino-7-fluoro-1-methyl-N-(1-methyl-1H-pyrazol-3-yl)-N-(5-(trifluoromethyl)-2,3-dihydro-1H-inden-1-yl)-1H-pyrazolo[4,3-c]quinolin-8-carboxamide] were, in that order, 0.3 nM and 276 nM. Consider `Cn1ncc2c(N)nc3cc(O)c(C(=O)N(c4nccs4)[C@@H]4CCc5cc(C(F)(F)F)ccc54)cc3c21` [Example 184, (R)-4-amino-7-hydroxy-1-methyl-N-(thiazol-2-yl)-N-(5-(trifluoromethyl)-2,3-dihydro-1H-inden-1-yl)-1H-pyrazolo[4,3-c]quinolin-8-carboxamide], for which the IC50 in assay [1] and in assay [2] was above 10000 nM in each case. Take `Cn1ncc2c(N)nc3cc(F)c(C(=O)N(CC(F)(F)F)[C@@H]4COc5cc(C(F)(F)F)ccc54)cc3c21` [Example 185, (S)-4-amino-7-fluoro-1-methyl-N-(2,2,2-trifluoroethyl)-N-(6-(trifluoromethyl)-2,3-dihydrobenzofuran-3-yl)-1H-pyrazolo[4,3-c]quinolin-8-carboxamide]: the IC50 turned out to be 28 nM in assay [1] and 1260 nM in assay [2].

For the compound `Cn1ncc2c(N)nc3cc(F)c(C(=O)N(CC(F)(F)F)[C@H]4COc5cc(C(F)(F)F)ccc54)cc3c21` [Example 186, (R)-4-amino-7-fluoro-1-methyl-N-(2,2,2-trifluoroethyl)-N-(6-(trifluoromethyl)-2,3-dihydrobenzofuran-3-yl)-1H-pyrazolo[4,3-c]quinolin-8-carboxamide], the results for the IC50 in assay [1] and in assay [2] were 506 nM and above 10000 nM, respectively. Take `Cn1cc(N(C(=O)c2ccc3nc(N)c4c(cnn4C)c3c2)[C@@H]2COc3cc(C(F)(F)F)ccc32)cn1` [Example 187, (S)-4-amino-3-methyl-N-(1-methyl-1H-pyrazol-4-yl)-N-(6-(trifluoromethyl)-2,3-dihydrobenzofuran-3-yl)-3H-pyrazolo[3,4-c]quinolin-8-carboxamide]: the figures for the IC50 in assay [1] and in assay [2] were 50 nM and 2440 nM, respectively. The corresponding values for `Cn1cc(N(C(=O)c2ccc3nc(N)c4c(cnn4C)c3c2)[C@H]2COc3cc(C(F)(F)F)ccc32)cn1` [Example 188, (R)-4-amino-3-methyl-N-(1-methyl-1H-pyrazol-4-yl)-N-(6-(trifluoromethyl)-2,3-dihydrobenzofuran-3-yl)-3H-pyrazolo[3,4-c]quinolin-8-carboxamide] are 2640 nM and above 10000 nM. Turning to `Cn1ncc2c(N)nc3cc(F)c(C(=O)N(c4cscn4)[C@@H]4CCc5cc(C(F)(F)F)ccc54)cc3c21` [Example 211, (R)-4-amino-7-fluoro-1-methyl-N-(thiazol-4-yl)-N-(5-(trifluoromethyl)-2,3-dihydro-1H-inden-1-yl)-1H-pyrazolo[4,3-c]quinolin-8-carboxamide], the IC50 in assay [1] is 4 nM.

`Nc1nc2ccc(C(=O)N(c3cscn3)[C@@H]3CCc4cc(C(F)(F)F)ccc43)cc2c2cnccc12` [Example 212, (R)-5-amino-N-(thiazol-4-yl)-N-(5-(trifluoromethyl)-2,3-dihydro-1H-inden-1-yl)benzo[c][2,6]naphthyridin-9-carboxamide] came in with an IC50 in assay [1] of 16 nM.

On to `Cn1ncc2c(N)nc3ccc(C(=O)N(c4ncccn4)C4CCc5cc(C(F)(F)F)ccc54)cc3c21` (centres unmarked) [Example 214, 4-amino-1-methyl-N-(pyrimidin-2-yl)-N-(5-(trifluoromethyl)-2,3-dihydro-1H-inden-1-yl)-1H-pyrazolo[4,3-c]quinolin-8-carboxamide], for which the IC50 in assay [1] was determined as 325 nM. `COC[C@@H](C)N(C(=O)c1ccc2nc(N)c3ccncc3c2c1)[C@H]1CCc2cc(C(F)(F)F)ccc21` [Example 215, 5-amino-N-((R)-1-methoxypropan-2-yl)-N-((S)-5-(trifluoromethyl)-2,3-dihydro-1H-inden-1-yl)benzo[c][2,6]naphthyridin-9-carboxamide] showed an IC50 in assay [1] of 6930 nM.

`COC[C@@H](C)N(C(=O)c1ccc2nc(N)c3ccncc3c2c1)[C@@H]1CCc2cc(C(F)(F)F)ccc21` [Example 216, 5-amino-N-((R)-1-methoxypropan-2-yl)-N-((R)-5-(trifluoromethyl)-2,3-dihydro-1H-inden-1-yl)benzo[c][2,6]naphthyridin-9-carboxamide] registered an IC50 in assay [1] of 940 nM. For the compound `COC[C@@H](C)N(C(=O)c1cc2c3c(c(N)nc2cc1F)COC3)[C@H]1CCc2cc(C(F)(F)F)ccc21` [Example 217, 4-amino-7-fluoro-N-((R)-1-methoxypropan-2-yl)-N-((S)-5-(trifluoromethyl)-2,3-dihydro-1H-inden-1-yl)-1,3-dihydrofuro[3,4-c]quinolin-8-carboxamide], the IC50 in assay [1] was 2360 nM. This IC50 is about 2.5-fold higher than that of the compound before. For the compound `COC[C@@H](C)N(C(=O)c1cc2c3c(c(N)nc2cc1F)COC3)[C@@H]1CCc2cc(C(F)(F)F)ccc21` [Example 218, 4-amino-7-fluoro-N-((R)-1-methoxypropan-2-yl)-N-((R)-5-(trifluoromethyl)-2,3-dihydro-1H-inden-1-yl)-1,3-dihydrofuro[3,4-c]quinolin-8-carboxamide], half-maximal inhibition in assay [1] (IC50) required 485 nM.

Turning to `C[C@H](c1ncccn1)N(C(=O)c1ccc2nc(N)c3ccncc3c2c1)[C@@H]1CCc2cc(C(F)(F)F)ccc21` [Example 222, 5-amino-N-((R)-1-(pyrimidin-2-yl)ethyl)-N-((R)-5-(trifluoromethyl)-2,3-dihydro-1H-inden-1-yl)benzo[c][2,6]naphthyridin-9-carboxamide], the IC50 in assay [1] stood at 217 nM. Compared with the last compound, the IC50 is about 2.2-fold lower.

In turn, `C[C@H](c1ncccn1)N(C(=O)c1cc2c3c(c(N)nc2cc1F)COC3)[C@@H]1CCc2cc(C(F)(F)F)ccc21` [Example 223, 4-amino-7-fluoro-N-((R)-1-(pyrimidin-2-yl)ethyl)-N-((R)-5-(trifluoromethyl)-2,3-dihydro-1H-inden-1-yl)-1,3-dihydrofuro[3,4-c]quinolin-8-carboxamide] registered an IC50 in assay [1] of 118 nM. Against the preceding compound, the IC50 is about 1.8-fold lower. In assay [1], `C[C@@H](c1ncccn1)N(C(=O)c1cc2c3c(c(N)nc2cc1F)COC3)[C@@H]1CCc2cc(C(F)(F)F)ccc21` [Example 224, 4-amino-7-fluoro-N-((S)-1-(pyrimidin-2-yl)ethyl)-N-((R)-5-(trifluoromethyl)-2,3-dihydro-1H-inden-1-yl)-1,3-dihydrofuro[3,4-c]quinolin-8-carboxamide] had an IC50 of 640 nM. Against the preceding compound, the IC50 is about 5.4-fold higher.
